Here are results for 59 molecules from PubChem BioAssay AID874 (The Scripps Research Institute Molecular Screening Center, 2007).

The source made the active and inactive calls. The rule behind the calls is not given here.

As usually defined, the EC50 is the midpoint of the concentration-response curve.

This test concerns CRE-BLA reporter cells, beta-lactamase FRET, counterscreen. Description: CRE beta-lactamase reporter activation by analogues – cell-based, purchased analogues, beta-lactamase FRET, counter-screen for S1P2 agonist project, SAR follow-up (AID 874). (The purpose of a counterscreen is to sort out artefacts and off-target activity.)
As for `Cc1cc(C(=O)CN(C)CC(=O)NC(C)C)c(C)n1Cc1ccccc1`, the EC50 was > 44 µM (inactive).

As to `Cc1ccc(C(=O)OCC(=O)c2cc(C)n(Cc3ccccc3)c2C)o1`, the EC50 is > 44 µM (inactive).

As for `Cc1cc(C(=O)CN(C)CC(=O)N(C)C)c(C)n1Cc1ccccc1`, the EC50 was > 44 µM (inactive).

Regarding `Cc1cc(C(=O)CN2C(=O)NC(Cc3ccccc3)C2=O)c(C)n1Cc1ccccc1` (centres undefined), the EC50 is > 44 µM (inactive).

Turning to `CCC1(CC)NC(=O)N(CC(=O)OCC(=O)c2cc(C)n(Cc3ccccc3)c2C)C1=O`, the EC50 was > 44 µM (inactive).

For the molecule `Cc1cc(C(=O)CN2C(=O)NC(Cc3ccccc3)C2=O)c(C)n1Cc1cccs1` (centres undefined), the EC50 is > 44 µM (inactive).

Turning to `Cc1cc(C(=O)CN(C)CC(=O)N2CCCC2)c(C)n1Cc1ccccc1`, the EC50 was > 44 µM (inactive).

Regarding `Cc1cc(C(=O)CN(C)CC(=O)NC(C)(C)C)c(C)n1Cc1ccccc1`, the EC50 is > 44 µM (inactive).

For the molecule `Cc1cc(C(=O)CN2C(=O)C(=O)N(Cc3ccco3)C2=O)c(C)n1Cc1ccccc1`, the EC50 is > 44 µM (inactive).

For `Cc1cc(C(=O)CN(C)CC(=O)N2CCOCC2)c(C)n1Cc1ccccc1`, the EC50 was > 44 µM (inactive).

`Cc1nc(C)c(C(=O)OCC(=O)c2cc(C)n(Cc3ccccc3)c2C)s1`: the EC50 was > 44 µM (inactive).

Regarding `COc1cccc(C2(C)NC(=O)N(CC(=O)c3cc(C)n(Cc4ccccc4)c3C)C2=O)c1` (centres undefined), the EC50 is > 44 µM (inactive).

On to `Cc1cc(C(=O)CN(C)CC(=O)NC2CC2)c(C)n1Cc1ccccc1`, for which the EC50 was > 44 µM (inactive).

With `Cc1cc(C(=O)CN2C(=O)NC3(CCOc4ccccc43)C2=O)c(C)n1Cc1ccccc1` (centres undefined), the EC50 was > 44 µM (inactive).

As for `CNC(=O)c1ccc(CN(C)CC(=O)c2cc(C)n(Cc3ccccc3)c2C)cc1`, the EC50 is > 44 µM (inactive).

As for `Cc1cc(C(=O)CN2C(=O)C(=O)N(Cc3ccccc3)C2=O)c(C)n1Cc1ccccc1`, the EC50 was > 44 µM (inactive).

Consider `Cc1cc(C(=O)COC(=O)Cn2cnc3ccccc3c2=O)c(C)n1Cc1ccccc1`, for which the EC50 was > 44 µM (inactive).

`Cc1cc(C(=O)CSc2nnnn2C2CC2)c(C)n1Cc1ccccc1`: the EC50 is > 44 µM (inactive).

Regarding `Cc1cc(C(=O)COC(=O)C2CSC3(C)CCC(=O)N23)c(C)n1Cc1ccccc1` (centres undefined), the EC50 is > 44 µM (inactive).

`Cc1cc(C(=O)CSc2nnnn2C)c(C)n1Cc1ccccc1`: the EC50 was > 44 µM (inactive).

Regarding `CC(=O)Nc1ccc(OCC(=O)c2cc(C)n(Cc3ccccc3)c2C)cc1`, the EC50 is > 44 µM (inactive).

As for `Cc1cc(C(=O)CSc2ncccn2)c(C)n1Cc1ccccc1`, the EC50 was > 44 µM (inactive).

Turning to `CC(=O)c1ccc(OCC(=O)c2cc(C)n(Cc3ccccc3)c2C)cc1`, the EC50 was > 44 µM (inactive).

Take `Cc1cc(C(=O)COc2ccc(C(N)=O)cc2)c(C)n1Cc1ccccc1`: the EC50 is > 44 µM (inactive).

With `Cc1sc2ncn(CC(=O)c3cc(C)n(Cc4ccccc4)c3C)c(=O)c2c1C`, the EC50 is > 44 µM (inactive).

As for `Cc1cc(C(=O)Cn2cnc3c(oc4ccccc43)c2=O)c(C)n1Cc1ccccc1`, the EC50 was > 44 µM (inactive).

Take `Cc1cc(C(=O)CN2C(=O)NC3(CCc4ccccc43)C2=O)c(C)n1Cc1ccccc1` (centres undefined): the EC50 was > 44 µM (inactive).

With `Cc1cc(C)nc(SCC(=O)OCC(=O)c2cc(C)n(Cc3ccccc3)c2C)n1`, the EC50 was > 44 µM (inactive).

Regarding `CCNC(=O)CN(CC)CC(=O)c1cc(C)n(Cc2ccccc2)c1C`, the EC50 is > 44 µM (inactive).

Consider `Cc1cc(C(=O)CN2C(=O)CCC2=O)c(C)n1Cc1ccccc1`, for which the EC50 was > 44 µM (inactive).

In the case of `Cc1cc(C(=O)COC(=O)CN2C(=O)C3CCCCC3C2=O)c(C)n1Cc1ccccc1` (centres undefined), the EC50 was > 44 µM (inactive).

On to `CCCNC(=O)CN(C)CC(=O)c1cc(C)n(Cc2ccccc2)c1C`, for which the EC50 is > 44 µM (inactive).

For the molecule `Cc1cc(C(=O)CSc2ncn[nH]2)c(C)n1Cc1ccccc1`, the EC50 is > 44 µM (inactive).

As for `Cc1cc(C(=O)COC(=O)C2CCC2)c(C)n1Cc1ccccc1`, the EC50 was > 44 µM (inactive).

In the case of `COc1ccc(NC(=O)CN(C)CC(=O)c2cc(C)n(Cc3ccccc3)c2C)cc1`, the EC50 was > 44 µM (inactive).

On to `Cc1cc(C(=O)CSc2nnnn2C(C)(C)C)c(C)n1Cc1ccccc1`, for which the EC50 was > 44 µM (inactive).

On to `Cc1cc(C(=O)COC(=O)CCS(=O)(=O)c2ccccc2)c(C)n1Cc1ccccc1`, for which the EC50 was > 44 µM (inactive).

As to `Cc1cc(C(=O)COC(=O)Cn2c(=O)oc3ccccc32)c(C)n1Cc1ccccc1`, the EC50 is > 44 µM (inactive).

In the case of `Cc1cc(C(=O)COC(=O)CN2C(=O)NC(C)(C)C2=O)c(C)n1Cc1ccccc1`, the EC50 is > 44 µM (inactive).

Turning to `Cc1cc(C(=O)CN2CCN(C(=O)c3ccco3)CC2)c(C)n1Cc1ccccc1`, the EC50 is > 44 µM (inactive).

Regarding `Cc1cc(C(=O)CN2C(=O)C(=O)N(Cc3ccccc3)C2=O)c(C)n1Cc1ccco1`, the EC50 is > 44 µM (inactive).

As to `Cc1noc(C)c1C(=O)OCC(=O)c1cc(C)n(Cc2ccccc2)c1C`, the EC50 was > 44 µM (inactive).

`CC(=O)c1cccc(OCC(=O)c2cc(C)n(Cc3ccccc3)c2C)c1`: the EC50 is > 44 µM (inactive).

With `Cc1cc(C(=O)Cn2cnc3c2c(=O)n(C)c(=O)n3C)c(C)n1Cc1ccccc1`, the EC50 is > 44 µM (inactive).

As to `Cc1cc(C(=O)CN2C(=O)C(=O)N(C3CCCC3)C2=O)c(C)n1Cc1ccccc1`, the EC50 was > 44 µM (inactive).

For `CC(=O)Nc1ccc(SCC(=O)c2cc(C)n(Cc3ccccc3)c2C)cc1`, the EC50 was > 44 µM (inactive).

As for `Cc1cc(C(=O)O)c(C)n1Cc1ccccc1`, the EC50 was > 44 µM (inactive).

As to `COc1ccc(C(N)=O)c(OCC(=O)c2cc(C)n(Cc3ccccc3)c2C)c1`, the EC50 was > 44 µM (inactive).

On to `Cc1cc(C(=O)CN2C(=O)CCC2=O)c(C)n1Cc1ccc2c(c1)OCO2`, for which the EC50 is > 44 µM (inactive).

As to `Cc1cc(C(=O)CN2C(=O)C(=O)N(C)C2=O)c(C)n1Cc1ccccc1`, the EC50 is > 44 µM (inactive).

Regarding `Cc1cc(C(=O)CSc2nnc(C3CC3)n2C)c(C)n1Cc1ccccc1`, the EC50 is > 44 µM (inactive).

Consider `Cc1cc(C(=O)CN2C(=O)C(=O)N(Cc3ccccc3)C2=O)c(C)n1Cc1ccc(F)cc1`, for which the EC50 is > 44 µM (inactive).

With `Cc1cc(C(=O)COC(=O)c2ccco2)c(C)n1Cc1ccccc1`, the EC50 is > 44 µM (inactive).

With `Cc1cc(C(=O)Cn2cc(C(F)(F)F)ccc2=O)c(C)n1Cc1ccccc1`, the EC50 was > 44 µM (inactive).

Take `CCOC(=O)c1cc(C)n(Cc2ccccc2)c1C`: the EC50 is > 44 µM (inactive).

For the molecule `Cc1cc(C(=O)CN(C)Cc2ccco2)c(C)n1Cc1ccccc1`, the EC50 was > 44 µM (inactive).

As for `Cc1cc(C(=O)COC(=O)C(O)c2ccccc2)c(C)n1Cc1ccccc1` (centres undefined), the EC50 is > 44 µM (inactive).

Consider `Cc1nn(CC(=O)c2cc(C)n(Cc3ccccc3)c2C)c(C)c1[N+](=O)[O-]`, for which the EC50 is > 44 µM (inactive).

`COCCNC(=O)CN(C)CC(=O)c1cc(C)n(Cc2ccccc2)c1C`: the EC50 was > 44 µM (inactive).
